# Test results from patent US20080050819A1, “Constructs for Marker Excision Based on Dual-Function Selection Marker” (BASF Plant Science GmbH, priority 2004, published 2008).
# Entries after “also recorded” stand apart in the source; their conditions may differ.
# Columns and labels:
# [1] = tested on: wild-type plants (A. thaliana); experiment: Toxicity of keto acids to wild-type plants on half strength MS agar plates; format: in vivo, Arabidopsis thaliana; details: for effect on growth of A. thaliana: in vivo
# Experimental: (§1) To evaluate the toxic action of 3-methyl-2-oxopentanoate and 3-methyl-2-oxobutanoate, wild-type plants were sown on two sets of half strength MS agar plates, each containing one of the compounds in a range of concentrations (0.01-10 mM). […] For 3-methyl-2-oxobutanoate, 5 mM was required for complete inhibition. Further, several attempts were made to probe the nature of D-serine's toxicity.
# DAAO transgenic plants = experiment: Germination of DAAO transgenic plants on D-Asn (cytosolic and peroxisomal DAAO); format: in vivo; details: 30 mM; cytosolic and peroxisomal DAAO constructs vs wild-type
# [2] = tested on: wild-type Arabidopsis thaliana; experiment: Growth of wild-type A. thaliana on D-amino acid media; format: in vivo; details: for effect on growth of wild-type plantlets: FIG. 3, half-concentrated MS medium supplemented at 3 mM (Panel A) or 30 mM (Panel B); for effect on wild-type plants: concentration not stated / various concentrations
# Experimental: FIG. 3 Effect of various D-amino acids on plant growth. • Wild type Arabidopsis thaliana plantlets were grown on half-concentrated Murashige-Skoog medium (0.5% (wt/vol) sucrose, 0.8% (wt/vol) agar) supplemented with the indicated D-amino acid at either 3 mM (Panel A) or 30 mM (Panel B).
# (§2) FIG. 4 D-amino acid dose responses of dao1 transgenic and wild-type A. thaliana. • (a-d) Growth of dao1 transgenic line 3:7 (white), 10:7 (light gray), 13:4 (gray) and wild-type (black) plants, in fresh weight per plant, on media containing various concentrations of D-serine, D-alanine, D-isoleucine and D-valine in half-strength MS with 0.5% (wt/vol) sucrose and 0.8% (wt/vol) agar. Different concentration ranges were used for different D-amino acids. The plants were grown for 10 d after germination under 16 h photoperiods at 24° C.; n=10±s.e.m., except for plants grown on D-isoleucine, where smaller Petri dishes were used, (n=6±s.e.m.). • (e-l) Photographs of dao1 transgenic line 10:7 (e-h) and wild-type plants (i-l), grown for 10 d on the highest concentrations of the D-amino acid shown in the respective graphs above. All pictures have the same magnification. FW, fresh weight.
# [3] = tested on: wild-type Arabidopsis thaliana; experiment: as above; format: in vivo; details: 30 mM, FIG. 2
# [4] = tested on: dao1 transgenic A. thaliana; experiment: Growth of dao1 (DAAO) transgenic A. thaliana on D-amino acid media; format: in vivo, Arabidopsis thaliana
# Experimental: as §2
# Therefore, plants containing the construct were tested as described above on two sets of media, one containing D-isoleucine and the other containing D-valine at various concentrations, to assess whether DAAO could also be used as a counter-selection marker. Unambiguous counter-selection selection was achieved when seeds were sown on either D-isoleucine or D-valine at concentrations greater than 10 mM (FIG. 4 c,d).
# wild-type seedlings = experiment: Spray application of D-amino acids on soil-grown wild-type seedlings; format: in vivo, Arabidopsis thaliana; details: one-week-old seedlings, 50 mM, sprayed on three consecutive days
# Experimental: (§3) FIG. 5: Selection of primary transformants with the DAAO marker. • (a-c) DAAO T1 seedlings on media containing 3 mM D-alanine (a), 3 mM D-serine (b) and 50 μg ml-1 kanamycin (c). Seeds were surface-sterilized and sown on half-strength MS plates with 0.5% (wt/vol) sucrose, 0.8% (wt/vol) agar and the respective selective compound, then grown for 5 d after germination under 16 h photoperiods at 24° C. • (d) DAAO transgenic plants grown on soil photographed after selection by spraying with (1) D-alanine and (2) D-serine, and wild-type plants sprayed with (3) D-alanine and (4) D-serine. Eight seeds per plot and treatment were sown on soil, and grown for 7 d after germination before applying the selective treatment, which consisted of spraying with aqueous 50 mM solutions of D-alanine or D-serine with 0.05% Tween 80 on three consecutive days.
# (§4) FIG.: 11 D-amino acids are applicable by spraying procedure DAAO transgenic plants grown on soil photographed after selection by spraying with (1) D-alanine and (2) D-serine, and wild-type plants sprayed with (3) D-alanine and (4) D-serine. Eight seeds per plot and treatment were sown on soil, and grown for 7 d after germination before applying the selective treatment, which consisted of spraying with aqueous 50 mM solutions of D-alanine or D-serine with 0.05% Tween 80 on three consecutive days.
# [5] = tested on: DAAO transgenic seedlings; experiment: Spray application of D-amino acids on soil-grown DAAO transgenic seedlings; format: in vivo, Arabidopsis thaliana; details: 50 mM spray
# Experimental: as §3, §4
# DAAO = molecular target: T1, DAAO (Rhodotorula toruloides, UniProt P80324); experiment: DAAO incubation of cell-free plant extracts, keto acid production by HPLC; format: biochemical, Rhodotorula gracilis; details: cell-free extracts from dao1 transgenic line 10:7
# T1 construct: expressed in transfected cells; host or cells: Arabidopsis thaliana (Col-0) dao1 transgenic line 10:7, stably transformed with pPCV702:dao1 (CaMV 35S); crude soluble protein extract
# T1 sequence (P80324 25-368): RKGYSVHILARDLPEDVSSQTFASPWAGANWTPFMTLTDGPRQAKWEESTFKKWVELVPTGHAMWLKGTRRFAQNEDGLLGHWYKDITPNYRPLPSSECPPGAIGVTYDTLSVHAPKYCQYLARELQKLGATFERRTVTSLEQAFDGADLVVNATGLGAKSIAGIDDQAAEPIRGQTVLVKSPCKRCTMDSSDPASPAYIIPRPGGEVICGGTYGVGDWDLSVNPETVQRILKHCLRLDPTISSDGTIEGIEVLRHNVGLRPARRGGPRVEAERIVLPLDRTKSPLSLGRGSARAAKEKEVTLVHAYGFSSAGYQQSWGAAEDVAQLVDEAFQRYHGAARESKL
# Experimental: Soluble proteins were extracted by shaking 0.1 g samples of plant material that had been finely pulverized in a 1.5 ml Eppendorf tube in 1 ml of 0.1 M potassium phosphate buffer, pH 8. DAAO activity was then assayed as follows. Reaction mixtures were pre-pared containing 2,120 μl of 0.1 M potassium phosphate buffer, pH 8, 80 μl of crude protein extract and 100 μl of 0.3 M D-alanine. The samples were incubated for 2 h at 30° C. The enzyme activity was then assessed, by measuring the increase in absorbance at 220 nm (E=1.090 M^−1 cm^−1) associated with the conversion of D-alanine to pyruvate, after transferring the test tubes to boiling water for 10 min to stop the reaction. In control reactions, D-alanine was added immediately before boiling. One unit of DAAO activity is defined as the turnover of one micromole of substrate per minute, and activity was expressed per gram plant biomass (fresh weight). The breakdown of D-isoleucine and D-valine in DAAO incubations, and the associated production of 3-methyl-2-oxopentanoate and 3-methyl-2-oxobutanoate, were analyzed by high-performance liquid chromatography. In other respects the reactions were carried out as described above.
# [6] = tested on: poplar, tobacco, barley, maize, tomato and spruce; experiment: Susceptibility of other plant species to D-serine; format: in vivo; details: concentrations similar to those toxic for A. thaliana; FIG. 6+7
# [7] = tested on: T1 seeds of transgenic Arabidopsis plants; experiment: Selection of DAAO (35S:dao1 / pNos:nptII) T1 seeds on selective media; format: in vivo, Arabidopsis thaliana; details: FIG. 4a
# Excerpt: Flowering A. thaliana plants were then transformed by the floral dip method (Clough S J & Bent A F (1998) Plant J. 16, 735-743 (1998) with the transgenic Agrobacterium tumefaciens strain carrying the vector described above by dipping for 10-20 seconds into the Agrobacterium solution. Afterwards the plants were kept in the greenhouse until seeds could be harvested. Transgenic seeds were selected by plating surface sterilized seeds on growth medium A (4.4 g/L MS salts [Sigma-Aldrich], 0.5 g/L MES [Duchefa]; 8 g/L Plant Agar [Duchefa]) supplemented with 50 mg/L kanamycin for plants carrying the nptII resistance marker, or 0.3 to 30 mM D-amino acids (as described below) for plants comprising the dual-function marker of the invention. Surviving plants were transferred to soil and grown in the greenhouse.
# T1 seeds of transgenic Arabidopsis plants were surface-sterilized and sown in Petri plates that were sealed with gas-permeable tape. The growth medium was half strength MS19 with 0.5% (wt/vol) sucrose and 0.8% (wt/vol) agar, plus 3 mM D-alanine, 3 mM D-serine or 50 μg/ml kanamycin as the selective agent. […] To evaluate the selection efficiency on different substrates, 2,074, 1,914 and 1,810 T1 seeds were sown on D-alanine-, D-serine- and kanamycin-selective plates, respectively, and the number of surviving seedlings was counted (44, 32 and 43, respectively). […]
# wildtype A. thaliana = experiment: Attempted rescue of wild-type A. thaliana grown on lethal D-serine with potential inhibitors of D-serine toxicity; format: in vivo, Arabidopsis thaliana; details: lethal concentrations of D-serine, added separately and in combinations, 0.001-50 μg ml-1
# Experimental: as §1
# [8] = wild-type plants, half strength MS agar, tested range 0.01-10 mM
# [9] = concentration not stated / various concentrations
molecule,measurement,setting,value
CC(C)C(=O)C(=O)O [3-methyl-2-oxobutanoate],effect on growth of A. thaliana,[1],impaired growth
same,concentration giving total (complete) growth inhibition,[1]; [8],5 mM
CCC(C)C(=O)C(=O)O (stereo not drawn) [3-methyl-2-oxopentanoate],effect on growth of A. thaliana,[1],impaired growth
same,concentration at which plants were slightly affected,[1]; [8],0.1 mM
same,concentration giving total (complete) growth inhibition,[1]; [8],1 mM
"NC(=O)C[C@@H](N)C(=O)O [D-Asn, D-asparagine]",inhibition of germination of DAAO transgenic plants,DAAO transgenic plants,inhibited significantly more than the wild-type
C[C@@H](N)C(=O)O [D-alanine],effect on growth of wild-type plantlets,[2],severe phytotoxic effects
same,effect on wild-type plants,[2],inhibited even at quite low concentrations; also recorded: inhibited growth
same,effect on wild-type plantlets,[3],toxic effect
same,effect on transgenic (DAAO) plants,[4]; 30 mM,no severe damage; also recorded: no negative effect
same,effect on transgenic (DAAO) plants,[4]; [9],detoxify; also recorded: developed normally
same,effect of sprayed application on wild-type seedlings,wild-type seedlings,effectively killed
same,response of transgenic seedlings to foliar application,[5],resistant
CC[C@@H](C)[C@@H](N)C(=O)O [D-isoleucine],effect on growth of wild-type plantlets,[2],no significant effects
same,effect on wild-type plants,[2],not toxic; also recorded: minor effects; also recorded: not the wild-type plants; also recorded: no sign of toxicity
same,effect on wild-type plantlets,[3],no severe damage
same,increase in production of the keto acid (3-methyl-2-oxopentanoate / 3-methyl-2-oxobutanoate) compared to extracts of wild-type plants,DAAO,15 fold
same,effect on transgenic (DAAO) plants,[4]; 30 mM,toxic effect
same,effect on transgenic (DAAO) plants,[4]; [9],strong negative influence; also recorded: inhibit growth; also recorded: effectively killed
N[C@H](CO)C(=O)O [D-serine],effect on growth of wild-type plantlets,[2],severe phytotoxic effects
same,effect on wild-type plants,[2],inhibited even at quite low concentrations; also recorded: inhibited growth
same,toxicity to other plant species,[6],toxic effects; also recorded: susceptible
same,concentration at which efficient selection was achieved,[7],lower than 1 mM
same,effect on transgenic (DAAO) plants,[4]; 3 mM,slightly inhibited the growth
same,effect on transgenic (DAAO) plants,[4]; 30 mM,significant growth inhibition
same,effect on transgenic (DAAO) plants,[4]; [9],detoxify; also recorded: developed normally
same,effect of sprayed application on wild-type seedlings,wild-type seedlings,effectively killed
same,response of transgenic seedlings to foliar application,[5],resistant
CC(C)[C@@H](N)C(=O)O [D-valine],effect on wild-type plants,[2],not toxic; also recorded: minor effects; also recorded: not the wild-type plants; also recorded: moderately negative effect
same,increase in production of the keto acid (3-methyl-2-oxopentanoate / 3-methyl-2-oxobutanoate) compared to extracts of wild-type plants,DAAO,7 fold
same,effect on transgenic (DAAO) plants,[4]; [9],strong negative influence; also recorded: inhibit growth
CC[C@H](C)[C@H](N)C(=O)O [L-isoleucine],effect on wild-type plants,[2],negative effects
N[C@@H](CO)C(=O)O [L-serine],rescue (mitigation) of D-serine toxicity,wildtype A. thaliana,without any success
CC(C)C[C@H](N)C(=O)O [leucine],rescue (mitigation) of D-serine toxicity,wildtype A. thaliana,without any success
CC(C)(CO)[C@@H](O)C(=O)NCCC(=O)O [pantothenic acid],rescue (mitigation) of D-serine toxicity,wildtype A. thaliana,could not be mitigated
C[C@@H](O)[C@H](N)C(=O)O [threonine],rescue (mitigation) of D-serine toxicity,wildtype A. thaliana,without any success
NCCC(=O)O [β-alanine],rescue (mitigation) of D-serine toxicity,wildtype A. thaliana,without any success
same,rescue (mitigation) of D-serine toxicity,wildtype A. thaliana; listed as â-alanine,could not be mitigated
calcium-pantothenate,rescue (mitigation) of D-serine toxicity,wildtype A. thaliana,without any success
